Results taken from US11208415B2, “Substituted indole Mcl-1 inhibitors” (Vanderbilt University, priority 2014, dated 2021).

Target: recombinant Mcl-1 (residues 172-327) (Homo sapiens (Human), UniProt Q07820)
Assay: Fluorescence polarization anisotropy competition assay (FITC-Bak or FITC-Bim BH3 peptide), Mcl-1
Assay type: binding
Settings: FITC-labeled BH3 peptide (Bak or Bim) displacement; Ki converted from IC50; printed as range bins; read-out: Ki for Inhibition of Mcl-1

Sequence of recombinant Mcl-1 (residues 172-327) (Q07820 172-327): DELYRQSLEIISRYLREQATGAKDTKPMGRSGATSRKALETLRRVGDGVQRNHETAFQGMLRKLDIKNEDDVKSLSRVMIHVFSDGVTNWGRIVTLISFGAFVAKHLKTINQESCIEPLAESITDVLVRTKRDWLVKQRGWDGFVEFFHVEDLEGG

With `Cc1cc(OCCCc2c3n(c4c(-c5c(C)nn(C)c5C)c(Cl)ccc24)CCCN(c2cc(C(=O)O)c4cn(C)nc4c2)C3=O)cc(C)c1Cl` [Example I-366, 6-(8-chloro-1-(3-(4-chloro-3,5-dimethylphenoxy)propyl)-1-oxo-7-(1,3,5-trimethyl-1H-pyrazol-4-yl)-4,5-dihydro-1H-[1,4]diazepino[1,2-a]indol-2(3H)-yl)-2-methyl-2H-indazole-4-carboxylic acid] the Ki was < 50 nM.
